Source: ChEMBL document CHEMBL1201862, “PubChem BioAssay data set” (2004)
Counter-ions that a name gives are not always drawn. Calls of active or inactive are those of the source.

Columns and labels:
[1] = molecular target: Vasopressin V1b receptor (Homo sapiens, UniProt P47901); assay: Late-stage results from the probe development effort to identify antagonists of arginine vasopressin receptor 1a (AVPR1a): fluorescence-based cell-based dose response AVPR1b inhibition counterscreen assay.; format: functional
Chain of Vasopressin V1b receptor (P47901 whole entry): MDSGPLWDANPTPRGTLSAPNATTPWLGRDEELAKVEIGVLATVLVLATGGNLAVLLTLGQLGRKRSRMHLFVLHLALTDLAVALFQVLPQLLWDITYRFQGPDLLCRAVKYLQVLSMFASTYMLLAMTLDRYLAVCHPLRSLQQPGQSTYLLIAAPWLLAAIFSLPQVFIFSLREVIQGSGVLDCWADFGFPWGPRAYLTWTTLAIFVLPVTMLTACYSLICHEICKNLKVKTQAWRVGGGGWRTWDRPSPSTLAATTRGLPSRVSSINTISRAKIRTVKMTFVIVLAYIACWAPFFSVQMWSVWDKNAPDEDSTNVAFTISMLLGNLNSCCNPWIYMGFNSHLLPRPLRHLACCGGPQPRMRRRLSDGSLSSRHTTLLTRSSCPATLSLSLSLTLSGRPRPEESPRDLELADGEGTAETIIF

[2] = molecular target: Vasopressin V2 receptor (Homo sapiens, UniProt P30518); assay: Late-stage results from the probe development effort to identify antagonists of arginine vasopressin receptor 1a (AVPR1a): fluorescence-based cell-based dose response AVPR2 inhibition counterscreen assay.; format: functional
Chain of Vasopressin V2 receptor (P30518 whole entry): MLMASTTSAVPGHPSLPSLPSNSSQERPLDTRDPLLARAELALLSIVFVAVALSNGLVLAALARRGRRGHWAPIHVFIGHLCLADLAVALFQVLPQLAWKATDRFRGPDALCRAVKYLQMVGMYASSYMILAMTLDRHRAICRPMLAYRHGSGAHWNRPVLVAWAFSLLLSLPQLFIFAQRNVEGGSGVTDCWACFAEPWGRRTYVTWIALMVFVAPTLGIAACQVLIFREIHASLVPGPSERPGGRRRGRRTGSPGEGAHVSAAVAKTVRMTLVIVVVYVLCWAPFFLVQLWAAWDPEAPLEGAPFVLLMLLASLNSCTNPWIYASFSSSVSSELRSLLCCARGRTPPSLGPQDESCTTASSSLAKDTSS

[3] = Late-stage results from the probe development effort to identify antagonists of arginine vasopressin receptor 1a (AVPR1a): fluorescence-based cell-based dose response OXTR inhibition counterscreen assay.; format: functional
[4] = Late-stage results from the probe development effort to identify antagonists of arginine vasopressin receptor 1a (AVPR1a): fluorescence-based cell-based dose response AVPR1a inhibition assay.; format: functional
[5] = Glucagon-like peptide 1 release potency, NCI-H716 cell line, dose-response, half-maximal inhibitory concentration (AID 1117344); format: functional, cell-based
[6] = cytotoxicity toward HT-29 cells – cell-based, CellTiter-Glo luminescence, IC50, dose response (AID 1117330); format: functional
[7] = Concentration-dependent survival of SW480 colon cancer line, luminescence detection with CellTiter-Glo, half-maximal inhibitory concentration (AID 1117338); format: functional
[8] = cytotoxicity toward HCT116 cells – cell-based, CellTiter-Glo luminescence, IC50, dose response (AID 1117332); format: functional; conditions: HCT-116
[9] = HCT116 cell viability decrease, GSK3B pretreatment – CellTiter-Glo, IC50, dose response (AID 1117339); format: functional; conditions: HCT-116
[10] = RKO cell viability reduction, dose response, CellTiter-Glo luminescence (AID 1117322); format: functional
[11] = CellTiter-Glo luminescent dose response of DLD-1 viability loss (AID 1117352); format: functional
[12] = half-maximal inhibitory concentration for glucagon-like peptide-1 release, STC-1 cell line, dose-response (AID 1117345); format: functional, cell-based
[13] = cytotoxicity toward Colo320 cells – cell-based, CellTiter-Glo luminescence, IC50, dose response (AID 1117334); format: functional; conditions: COLO 320
[14] = SNU-C1 cell viability reduction, dose response, CellTiter-Glo luminescence (AID 1117323); format: functional, cell-based
[15] = Artemis endonuclease inhibitor potency, dose response, biochemical, fluorescence intensity (AID 720701); format: functional;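 also: Artemis endonuclease enzyme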
[16] = A549 cell cytotoxicity, dose response, cytotoxicity control, 24 h, CellTiter-Glo luminescence, cherry-picks (AID 1053115); format: functional, cell-based; conditions: A549, 24 h
[17] = insulin promoter down-regulators in MIN6 cells, imaging, high-content screening, mouse beta cells (AID 1628); format: functional
[18] = cells; format: functional, cell-based
[19] = HEp-2 cell cytotoxicity, dose response, cytotoxicity control for RSV inhibitor project, HTS (AID 2410); format: functional; conditions: human respiratory syncytial virus
[20] = Luminescence Cell-Based Dose Retest to Confirm Inhibitors of Cancer Stem Cells. [Related pubchem assays (depositor defined):AID2717, AID2721]; format: functional; conditions: Homo sapiens
[21] = molecular target: E3 ubiquitin-protein ligase Mdm2 (Homo sapiens, UniProt Q00987); assay: enhancers of MDM2-luciferase reporter signal, concentration-effect titration, project on inhibitors of MDM2 ubiquitin ligase, cellular assay, luminescent readout, 384-well plate format (AID 1394); format: functional;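 also: MDM2 E3 inhibitors raise luminescence so EC50 is for signal enhancement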
Chain of E3 ubiquitin-protein ligase Mdm2 (Q00987 whole entry): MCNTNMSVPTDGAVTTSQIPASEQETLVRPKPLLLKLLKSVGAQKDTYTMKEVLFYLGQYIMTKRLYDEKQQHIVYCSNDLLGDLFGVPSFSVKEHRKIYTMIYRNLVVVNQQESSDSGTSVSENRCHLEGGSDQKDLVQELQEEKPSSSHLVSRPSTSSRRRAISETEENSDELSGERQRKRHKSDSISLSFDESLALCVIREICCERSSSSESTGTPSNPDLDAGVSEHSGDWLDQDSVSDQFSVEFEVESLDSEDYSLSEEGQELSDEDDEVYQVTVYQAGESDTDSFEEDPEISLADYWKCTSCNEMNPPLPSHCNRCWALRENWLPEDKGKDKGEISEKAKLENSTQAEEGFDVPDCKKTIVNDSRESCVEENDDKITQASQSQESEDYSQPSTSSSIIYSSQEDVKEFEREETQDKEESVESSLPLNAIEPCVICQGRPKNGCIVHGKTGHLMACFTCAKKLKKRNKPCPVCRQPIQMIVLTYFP

[22] = cytotoxicity in MIN6 insulinoma cells, dose response, cytotoxicity control, cell-based, mouse insulinoma (AID 2122); format: functional;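 also: confirmatory high-throughput counterscreen run to flag cytotoxic compounds; mouse MIN-6 beta cells carrying an insulin promoter eGFP reporter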
[23] = tested on: Vero; assay: cells; format: functional; conditions: Chlorocebus sabaeus
[24] = molecular target: T1, Nuclear receptor subfamily 0 group B member 1 (Homo sapiens, UniProt P51843); format: functional, cell-based;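 also: HEK293T cells transfected with SF-1 and DAX-1 plus StAR promoter luciferase reporter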
T1 sequence (P51843 whole entry): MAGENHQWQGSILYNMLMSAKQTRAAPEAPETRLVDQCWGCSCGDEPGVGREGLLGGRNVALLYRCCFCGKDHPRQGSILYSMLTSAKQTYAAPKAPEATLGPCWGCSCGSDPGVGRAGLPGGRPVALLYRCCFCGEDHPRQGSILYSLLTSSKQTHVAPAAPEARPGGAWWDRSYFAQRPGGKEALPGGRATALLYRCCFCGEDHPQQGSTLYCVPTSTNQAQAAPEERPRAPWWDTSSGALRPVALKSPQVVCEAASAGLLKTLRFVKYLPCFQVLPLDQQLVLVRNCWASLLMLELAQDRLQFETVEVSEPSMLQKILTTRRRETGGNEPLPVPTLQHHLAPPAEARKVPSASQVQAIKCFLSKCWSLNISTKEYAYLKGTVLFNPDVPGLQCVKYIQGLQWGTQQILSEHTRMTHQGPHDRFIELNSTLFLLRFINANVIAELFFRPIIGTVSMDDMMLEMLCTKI

[25] = Jurkat T cell cytotoxicity, dose response, cytotoxicity control for P. falciparum gametocyte viability project, luminescence (AID 1117277); format: functional, cell-based;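 also: potency reflects loss of cellular ATP meaning fewer viable cells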
[26] = P. falciparum late gametocyte killing, dose response, luminescence (AID 1117278); format: functional, cell-based;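 also: gametocytes exposed to compound for 24 hours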
[27] = Vero cell cytotoxicity, dose response, cytotoxicity control for Vif-APOBEC3G degradation inhibitor project, Vero cells (AID 1117358); format: functional; conditions: Human immunodeficiency virus 1, Vero
[28] = molecular target: DNA dC->dU-editing enzyme APOBEC-3A (Homo sapiens, UniProt P31941); assay: Dose Response confirmation of small molecule APOBEC3A DNA Deaminase Inhibitors via a fluorescence-based single-stranded DNA deaminase assay. [Related pubchem assays (depositor defined):AID493011, AID493024]; format: functional
Chain of DNA dC->dU-editing enzyme APOBEC-3A (P31941 whole entry, the tested form may be a part): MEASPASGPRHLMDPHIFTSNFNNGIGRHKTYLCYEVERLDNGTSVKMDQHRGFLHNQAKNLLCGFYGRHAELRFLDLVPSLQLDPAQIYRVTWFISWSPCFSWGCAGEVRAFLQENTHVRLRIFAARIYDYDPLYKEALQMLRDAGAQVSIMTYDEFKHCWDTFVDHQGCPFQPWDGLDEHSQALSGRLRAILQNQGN

[29] = molecular target: T2, Carboxy-terminal domain RNA polymerase II polypeptide A small phosphatase 1 (Homo sapiens, UniProt Q9GZU7); assay: inhibitors of CTDSP1, concentration-response testing, biochemical assay, absorbance-based, actives from ultra-high-throughput screening (AID 540297); format: functional
T2 sequence (Q9GZU7 whole entry): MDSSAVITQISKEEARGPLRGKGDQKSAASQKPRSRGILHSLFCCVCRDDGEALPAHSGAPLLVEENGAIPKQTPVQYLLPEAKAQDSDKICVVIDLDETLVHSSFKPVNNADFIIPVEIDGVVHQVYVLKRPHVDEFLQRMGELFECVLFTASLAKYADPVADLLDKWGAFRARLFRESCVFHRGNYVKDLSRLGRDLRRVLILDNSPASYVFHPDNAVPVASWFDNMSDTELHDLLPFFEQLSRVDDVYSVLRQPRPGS

[30] = molecular target: DNA dC->dU-editing enzyme APOBEC-3G (Homo sapiens, UniProt Q9HC16); format: functional;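 also: Dose-response counterscreen measuring inhibition of APOBEC3G DNA deaminase activity, run while confirming APOBEC3A inhibitors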
Chain of DNA dC->dU-editing enzyme APOBEC-3G (Q9HC16 whole entry): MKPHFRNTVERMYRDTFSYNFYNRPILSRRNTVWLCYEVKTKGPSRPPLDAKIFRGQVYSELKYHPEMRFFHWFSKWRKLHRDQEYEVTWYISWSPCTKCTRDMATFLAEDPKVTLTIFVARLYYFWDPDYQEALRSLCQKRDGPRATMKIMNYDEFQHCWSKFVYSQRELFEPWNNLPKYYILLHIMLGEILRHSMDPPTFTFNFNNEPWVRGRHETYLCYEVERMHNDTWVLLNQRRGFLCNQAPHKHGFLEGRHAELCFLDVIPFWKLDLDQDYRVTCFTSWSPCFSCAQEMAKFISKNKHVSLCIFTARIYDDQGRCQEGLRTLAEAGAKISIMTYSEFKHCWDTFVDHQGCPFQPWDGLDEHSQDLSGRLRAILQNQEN

[31] = molecular target: Protein Tat (Human immunodeficiency virus type 1 group M subtype B (isolate HXB2)(HIV-1), UniProt P04608); format: functional;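 also: tat binding to TAR RNA read out by fluorescence polarization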
Chain of Protein Tat (P04608 whole entry): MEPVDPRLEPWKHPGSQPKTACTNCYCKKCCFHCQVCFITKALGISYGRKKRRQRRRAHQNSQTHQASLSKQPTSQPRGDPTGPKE

[32] = molecular target: T3, Sentrin-specific protease 8 (Homo sapiens, UniProt Q96LD8); format: functional
T3 sequence (Q96LD8 whole entry): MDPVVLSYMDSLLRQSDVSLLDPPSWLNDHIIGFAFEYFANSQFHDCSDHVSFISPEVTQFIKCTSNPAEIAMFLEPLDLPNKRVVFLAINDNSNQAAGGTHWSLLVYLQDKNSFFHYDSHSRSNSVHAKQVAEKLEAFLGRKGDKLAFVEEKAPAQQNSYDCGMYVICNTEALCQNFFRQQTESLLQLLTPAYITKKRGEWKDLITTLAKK

[33] = inhibitors of intracellular T. cruzi replication, confirmation, NIH3T3 host cells, beta-gal luminescence (AID 2044); format: functional, cell-based;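 also: intracellular parasites grown in NIH/3T3 mouse fibroblasts as host cells; luminescent beta-galactosidase reporter signal from transgenic T. cruzi replicating inside host cells; inhibitors lower the luminescence signal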
[34] = cytotoxicity toward NIH3T3 fibroblasts, dose response, counter-screen, cell-based, ATP luminescence, mouse fibroblasts (AID 2010); format: functional;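 also: cells exposed to compound for about 90 hours before reading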
[35] = molecular target: T3, Sentrin-specific protease 8; format: functional; remark: listed apart in the source
[36] = cells

For `Cc1cccc(N2CCC(C(=O)N(CC3CC3)c3ccc(Cl)cc3)CC2)n1`, the IC50 [1] was 17.6 µM (inactive), the IC50 [2] was 6.1 µM (active) and the IC50 [3] was 5.1 µM (active). For the same compound, the IC50 [4] was 0.0248 µM (active).

In the case of `C[C@@H]1CN(CCCn2c3ccccc3c3ccccc32)C[C@H](C)N1` [RIMCAZOLE HYDROCHLORIDE], the IC50 [5] is reported as 6.37 µM (inactive), the IC50 [6] is reported as 4.02 µM (active) and the IC50 [7] is reported as 2.35 µM (active). The IC50 [8] was 10.5 µM (inactive), the IC50 [9] was 3.85 µM (active) and the IC50 [10] was 2.18 µM (active). The IC50 [11] was 9.8 µM (inactive), the IC50 [12] was > 40 µM (inactive) and the IC50 [13] was 15.9 µM (inactive). For the same compound, the IC50 [14] was 6.02 µM (inactive).

In the case of `O=C(NC(C(=O)N/N=C/c1c2ccccc2cc2ccccc12)c1nnc(O)c2ccccc12)c1ccccc1` (configuration not stated), the IC50 [15] is reported as > 20 µM (inactive).

For `Cc1nnc2n1-c1sc(CCc3ccc(CC(C)C)cc3)cc1C(c1ccccc1Cl)=NC2C` (configuration not stated) [ISRAPAFANT], the IC50 [5] was 24.7 µM (inactive) and the IC50 [12] was > 40 µM (inactive).

For `O=C(N1CCC2(CC1)OCc1ccccc12)N(CC1CC1)c1ccccc1`, the IC50 [1] was 25.1 µM (inactive), the IC50 [2] was 20 µM (inactive) and the IC50 [3] was 20 µM (inactive). The IC50 [4] was 0.466 µM (active).

For `N#Cc1ccc(-c2ccc3c(c2)[C@H]2[C@H](CCN2C(=O)C2CCCCC2)[C@@H](CO)N3)cc1`, the AC50 [16] was 48.7 µM (active).

With `COc1ccc(/C=C/C(=O)Nc2ccc(C34CC5CC(CC(O)(C5)C3)C4)cc2)cc1OC` the IC50 [17] was 2.17 µM (active), the IC50 [18] was > 67.5 µM (inactive) and the CC50 [19] was 1.48 µM (active). The AC50 [20] was 0.647 µM (active), the EC50 [21] was 3.12 µM (not active) and the IC50 [22] was 5.21 µM (active). The CC50 [23] was 20.9 µM (active) and the IC50 [24] was > 0.834 µM (active).

In the case of `COc1ccc(CCN(C)CCCN2CC(c3ccccc3)CC2=O)cc1OC` (configuration not stated), the IC50 [25] is reported as > 83.3 µM (inactive) and the IC50 [26] is reported as > 109 µM (inactive).

For `Cc1cc(Cl)c(S(=O)(=O)NCC2CCCO2)cc1OCC(=O)NC1CCCCC1` (configuration not stated), the CC50 [27] was > 40 µM (active).

In the case of `CCOC(=O)C1=C(COC(=O)/C=C/c2ccco2)NC(=O)NC1C` (configuration not stated), the IC50 [28] is reported as 15.9 µM (active), the IC50 [29] is reported as 4.25 µM (active) and the IC50 [30] is reported as 28.4 µM (active). For the same compound, the IC50 [31] was > 100 µM (active).

In the case of `CN(C)CCN(C(=O)c1ccc(N2C(=O)CCC2=O)cc1)c1nc2cc3c(cc2s1)OCO3`, the IC50 [32] is reported as 33.5 µM (active), the EC50 [33] is reported as < 0.1 µM (active) and the EC50 [34] is reported as > 60 µM (not active). For the same compound, the IC50 [35] was 24.4 µM (active) and the EC50 [36] was 0.102 µM (active).
